In this experiment the target is PIK3CD (Human) (UniProt O00329). The experiment is described as follows: Assessment of PIK3CD Kinase Activity.

pIC50: −log10 of the molar value.

PIK3CD (Human), sequence (O00329 whole entry, looked up): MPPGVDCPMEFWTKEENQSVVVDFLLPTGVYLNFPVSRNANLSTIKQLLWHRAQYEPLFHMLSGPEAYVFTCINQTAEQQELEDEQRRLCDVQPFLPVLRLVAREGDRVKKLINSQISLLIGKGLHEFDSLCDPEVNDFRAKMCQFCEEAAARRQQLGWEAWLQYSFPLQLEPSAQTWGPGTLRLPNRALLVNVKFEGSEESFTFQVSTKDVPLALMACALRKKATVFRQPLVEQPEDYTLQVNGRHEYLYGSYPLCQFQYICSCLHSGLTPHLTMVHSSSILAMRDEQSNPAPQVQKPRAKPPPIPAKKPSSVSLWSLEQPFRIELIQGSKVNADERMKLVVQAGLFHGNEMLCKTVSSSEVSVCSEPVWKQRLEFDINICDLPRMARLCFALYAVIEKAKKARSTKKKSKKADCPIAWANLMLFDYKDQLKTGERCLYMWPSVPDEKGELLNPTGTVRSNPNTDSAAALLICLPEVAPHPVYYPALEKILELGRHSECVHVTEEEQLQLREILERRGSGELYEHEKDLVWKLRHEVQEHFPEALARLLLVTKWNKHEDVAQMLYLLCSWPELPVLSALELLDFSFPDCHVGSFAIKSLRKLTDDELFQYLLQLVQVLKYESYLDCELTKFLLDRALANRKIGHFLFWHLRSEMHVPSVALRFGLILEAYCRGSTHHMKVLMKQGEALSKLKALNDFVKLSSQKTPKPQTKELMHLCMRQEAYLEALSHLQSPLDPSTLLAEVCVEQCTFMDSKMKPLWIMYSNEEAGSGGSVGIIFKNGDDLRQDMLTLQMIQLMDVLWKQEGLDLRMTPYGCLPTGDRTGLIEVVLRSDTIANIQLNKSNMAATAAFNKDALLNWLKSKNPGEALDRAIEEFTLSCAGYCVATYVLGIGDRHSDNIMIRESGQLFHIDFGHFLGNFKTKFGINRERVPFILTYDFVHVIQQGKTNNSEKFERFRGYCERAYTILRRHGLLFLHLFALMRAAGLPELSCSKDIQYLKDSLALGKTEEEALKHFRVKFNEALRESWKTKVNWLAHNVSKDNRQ

Broadly, the pIC50 is the negative decadic logarithm of the IC50, by convention in mol/L. `c1ccc(N2CCN(Cc3cc4nc(-c5cccc6[nH]ncc56)nc(N5CCOCC5)c4s3)CC2)nc1` gave a pIC50 of at least 7.00.

On to `c1cc(-c2nc(N3CCOCC3)c3sc(CN4CCNCC4)cc3n2)c2cc[nH]c2c1`, for which the pIC50 was at least 7.00.

On to `CCC(CC)(COC)N1CCN(Cc2cc3nc(-c4cccc5[nH]ncc45)nc(N4CCOCC4)c3s2)CC1`, for which the pIC50 was at least 7.00.

`c1cnc(N2CCN(Cc3cc4nc(-c5cccc6[nH]ncc56)nc(N5CCOCC5)c4s3)CC2)nc1` gave a pIC50 of at least 7.00.

In the case of `c1cc(-c2nc(N3CCOCC3)c3sc(CN4CCC(N5CCOCC5)CC4)cc3n2)c2cc[nH]c2c1`, the pIC50 is at least 7.00.

Regarding `c1cc(-c2nc(N3CCOCC3)c3sc(CN4CCN(Cc5cnc[nH]5)CC4)cc3n2)c2cn[nH]c2c1`, the pIC50 was at least 7.00.

Turning to `CC(C)(C(N)=O)N1CCN(Cc2cc3nc(-c4cccc5[nH]ncc45)nc(N4CCOCC4)c3s2)CC1`, the pIC50 is at least 7.00.

`COCCN1CCN(Cc2cc3nc(-c4cccc5[nH]ncc45)nc(N4CCOCC4)c3s2)CC1` gave a pIC50 of at least 7.00.

Turning to `CNC(=O)C(C)(C)N1CCN(Cc2cc3nc(-c4cccc5[nH]ncc45)nc(N4CCOCC4)c3s2)CC1`, the pIC50 was at least 7.00.

`CNC(=O)[C@H]1CCCN(Cc2cc3nc(-c4cccc5[nH]ncc45)nc(N4CCOCC4)c3s2)C1` showed a pIC50 of at least 7.00.

The compound `COCCOC1CCN(Cc2cc3nc(-c4cccc5[nH]ncc45)nc(N4CCOCC4)c3s2)CC1` had a pIC50 of at least 7.00.

Consider `CN1CCN(Cc2cc3nc(-c4cc(F)cc5[nH]ncc45)nc(N4CCOCC4)c3s2)CC1`, for which the pIC50 was at least 7.00.

For the compound `CNC(=O)[C@@H]1CCCN(Cc2cc3nc(-c4cccc5[nH]ncc45)nc(N4CCOCC4)c3s2)C1`, the pIC50 was at least 7.00.

On to `OCCC1CCN(Cc2cc3nc(-c4cccc5[nH]ncc45)nc(N4CCOCC4)c3s2)CC1`, for which the negative logarithm of the IC50 (pIC50) was at least 7.00.

As for `c1cc(-c2nc(N3CCOCC3)c3sc(CN4CCN(Cc5ncc[nH]5)CC4)cc3n2)c2cn[nH]c2c1`, the pIC50 was at least 7.00.

Compound `c1ccc(OC2CCN(Cc3cc4nc(-c5cccc6[nH]ncc56)nc(N5CCOCC5)c4s3)CC2)nc1` gave a pIC50 of at least 7.00.

In turn, `[O-][n+]1cccc(CN2CCN(Cc3cc4nc(-c5cccc6[nH]ncc56)nc(N5CCOCC5)c4s3)CC2)c1` showed a pIC50 of at least 7.00.

For `CN(C)S(=O)(=O)N1CCN(Cc2cc3nc(-c4cccc5[nH]ncc45)nc(N4CCOCC4)c3s2)CC1`, the pIC50 is at least 7.00.

Compound `C[C@@H]1CN(C)C[C@H](C)N1Cc1cc2nc(-c3cccc4[nH]ncc34)nc(N3CCOCC3)c2s1` had a pIC50 of at least 7.00.

The compound `COCC1CCCN(Cc2cc3nc(-c4cccc5[nH]ncc45)nc(N4CCOCC4)c3s2)C1` (stereo not drawn) had a pIC50 of at least 7.00.

For `OCCN1CCN(Cc2cc3nc(-c4cccc5[nH]ncc45)nc(N4CCOCC4)c3s2)CC1`, the pIC50 is at least 7.00.

Regarding `Cc1ccc(CN2CCN(Cc3cc4nc(-c5cccc6[nH]ncc56)nc(N5CCOCC5)c4s3)CC2)o1`, the pIC50 is at least 7.00.

Regarding `COCCCN(C)C1CCN(Cc2cc3nc(-c4cccc5[nH]ncc45)nc(N4CCOCC4)c3s2)CC1`, the pIC50 was at least 7.00.

Regarding `CC(C)(C(=O)N1CCCC1)N1CCN(Cc2cc3nc(-c4cccc5[nH]ncc45)nc(N4CCOCC4)c3s2)CC1`, the pIC50 was at least 7.00.

`CNC(=O)C1CCN(Cc2cc3nc(-c4cccc5[nH]ncc45)nc(N4CCOCC4)c3s2)CC1` gave a pIC50 of at least 7.00.

The compound `COCCC1CCN(Cc2cc3nc(-c4cccc5[nH]ncc45)nc(N4CCOCC4)c3s2)CC1` showed a pIC50 of at least 7.00.

For `CNC(=O)C1CCCN(Cc2cc3nc(-c4cccc5[nH]ncc45)nc(N4CCOCC4)c3s2)C1` (stereo not drawn), the pIC50 was at least 7.00.

`COCCN(C)C(=O)C1CCN(Cc2cc3nc(-c4cccc5[nH]ncc45)nc(N4CCOCC4)c3s2)CC1` showed a pIC50 of at least 7.00.

With `CC(C)(O)CN1CCN(Cc2cc3nc(-c4cccc5[nH]ncc45)nc(N4CCOCC4)c3s2)CC1`, the pIC50 is at least 7.00.

`COCCN(C(C)C)C1CCN(Cc2cc3nc(-c4cccc5[nH]ncc45)nc(N4CCOCC4)c3s2)CC1` gave a pIC50 of at least 7.00.

Regarding `c1cc(-c2nc(N3CCOCC3)c3sc(CN4CCN(CC5CC5)CC4)cc3n2)c2cn[nH]c2c1`, the pIC50 was at least 7.00.

Turning to `OC1(Cc2ccccn2)CCN(Cc2cc3nc(-c4cccc5[nH]ncc45)nc(N4CCOCC4)c3s2)CC1`, the pIC50 is at least 7.00.

In the case of `OCCN1CCN(Cc2cc3nc(-c4cccc5[nH]ccc45)nc(N4CCOCC4)c3s2)CC1`, the pIC50 is at least 7.00.

In turn, `CN(C1CCN(Cc2cc3nc(-c4cccc5[nH]ncc45)nc(N4CCOCC4)c3s2)CC1)S(C)(=O)=O` gave a pIC50 of at least 7.00.

The compound `c1cc(-c2nc(N3CCOCC3)c3sc(CN4CCC(CN5CCOCC5)CC4)cc3n2)c2cn[nH]c2c1` had a pIC50 of at least 7.00.

In the case of `FC(F)(F)CN1CCN(Cc2cc3nc(-c4cccc5[nH]ncc45)nc(N4CCOCC4)c3s2)CC1`, the pIC50 was at least 7.00.

`CN(C)CCCS(=O)(=O)N1CCN(Cc2cc3nc(-c4cccc5[nH]ncc45)nc(N4CCOCC4)c3s2)CC1` showed a pIC50 of at least 7.00.

Take `O=S(=O)(CCCN1CCOCC1)N1CCN(Cc2cc3nc(-c4cccc5[nH]ncc45)nc(N4CCOCC4)c3s2)CC1`: the pIC50 is at least 7.00.

Regarding `CN(C)C(=O)N1CCN(Cc2cc3nc(-c4cccc5[nH]ncc45)nc(N4CCOCC4)c3s2)CC1`, the pIC50 was at least 7.00.

Regarding `CC(C)(O)C1CCN(Cc2cc3nc(-c4cccc5[nH]ncc45)nc(N4CCOCC4)c3s2)CC1`, the pIC50 is at least 7.00.

Turning to `COCCN1[C@H](C)CN(Cc2cc3nc(-c4cccc5[nH]ncc45)nc(N4CCOCC4)c3s2)C[C@@H]1C`, the pIC50 was at least 7.00.

For `CN(C)CC1CCN(Cc2cc3nc(-c4cccc5[nH]ncc45)nc(N4CCOCC4)c3s2)CC1`, the pIC50 was at least 7.00.

The compound `c1cncc(CN2CCN(Cc3cc4nc(-c5cccc6[nH]ncc56)nc(N5CCOCC5)c4s3)CC2)c1` had a pIC50 of at least 7.00.

Compound `[O-][n+]1ccccc1CN1CCN(Cc2cc3nc(-c4cccc5[nH]ncc45)nc(N4CCOCC4)c3s2)CC1` showed a pIC50 of at least 7.00.

As to `O=C(N1CCOCC1)N1CCN(Cc2cc3nc(-c4cccc5[nH]ncc45)nc(N4CCOCC4)c3s2)CC1`, the pIC50 is at least 7.00.

Compound `COCC(=O)N(C)C1CCN(Cc2cc3nc(-c4cccc5[nH]ncc45)nc(N4CCOCC4)c3s2)CC1` had a pIC50 of at least 7.00.

For `Cc1cccc(CN2CCN(Cc3cc4nc(-c5cccc6[nH]ncc56)nc(N5CCOCC5)c4s3)CC2)n1`, the pIC50 was at least 7.00.

For the compound `CN(C)C1CCN(Cc2cc3nc(-c4cccc5[nH]ccc45)nc(N4CCOCC4)c3s2)CC1`, the pIC50 is at least 7.00.

Turning to `c1cc(-c2nc(N3CCOCC3)c3sc(CN4CCC(N5CCCCC5)CC4)cc3n2)c2cn[nH]c2c1`, the pIC50 is at least 7.00.

In the case of `OC1(c2nccs2)CCN(Cc2cc3nc(-c4cccc5[nH]ncc45)nc(N4CCOCC4)c3s2)CC1`, the pIC50 was at least 7.00.

In the case of `CN(C)C(=O)CN1CCN(Cc2cc3nc(-c4cccc5[nH]ncc45)nc(N4CCOCC4)c3s2)CC1`, the pIC50 was at least 7.00.

Take `CS(=O)(=O)N1CCN(Cc2cc3nc(-c4cccc5[nH]ncc45)nc(N4CCOCC4)c3s2)CC1CO` (stereo not drawn): the pIC50 is at least 7.00.

The compound `COCC1CCN(Cc2cc3nc(-c4cccc5[nH]ncc45)nc(N4CCOCC4)c3s2)CC1` had a pIC50 of at least 7.00.

Consider `COCCN(C)C1CCN(Cc2cc3nc(-c4cccc5[nH]ncc45)nc(N4CCOCC4)c3s2)CC1`, for which the pIC50 is at least 7.00.

`c1cc(-c2nc(N3CCOCC3)c3sc(CN4CCOCC4)cc3n2)c2cn[nH]c2c1` gave a pIC50 of at least 7.00.

Compound `COCCN(C)C(=O)N1CCN(Cc2cc3nc(-c4cccc5[nH]ncc45)nc(N4CCOCC4)c3s2)CC1` gave a pIC50 of at least 7.00.

On to `COCC(C)(C)N1CCN(Cc2cc3nc(-c4cccc5[nH]ncc45)nc(N4CCOCC4)c3s2)CC1`, for which the pIC50 was at least 7.00.

Turning to `NC(=O)C1CCN(Cc2cc3nc(-c4cccc5[nH]ncc45)nc(N4CCOCC4)c3s2)CC1`, the pIC50 is at least 7.00.

Consider `CN1CCN(Cc2cc3nc(-c4cccc5[nH]ncc45)nc(N4CCOCC4)c3s2)CC1`, for which the pIC50 is at least 7.00.

For `Cc1cc(CN2CCN(Cc3cc4nc(-c5cccc6[nH]ncc56)nc(N5CCOCC5)c4s3)CC2)no1`, the pIC50 was at least 7.00.

Turning to `Cc1csc(CN2CCN(Cc3cc4nc(-c5cccc6[nH]ncc56)nc(N5CCOCC5)c4s3)CC2)n1`, the pIC50 is at least 7.00.

As for `OCC1CCCN(Cc2cc3nc(-c4cccc5[nH]ncc45)nc(N4CCOCC4)c3s2)C1` (stereo not drawn), the pIC50 is at least 7.00.

`CN1CCN(Cc2cc3nc(-c4cccc5nn(C)cc45)nc(N4CCOCC4)c3s2)CC1` had a negative-log IC50 (pIC50) of at least 7.00.

For the compound `O=C(N1CCOCC1)N1CCN(Cc2cc3nc(-c4cccc5[nH]ccc45)nc(N4CCOCC4)c3s2)CC1`, the pIC50 was at least 7.00.

`COCCN(C)C1CCCN(Cc2cc3nc(-c4cccc5[nH]ncc45)nc(N4CCOCC4)c3s2)C1` (stereo not drawn) showed a pIC50 of at least 7.00.

For `C[C@@H]1CN(Cc2cc3nc(-c4cccc5[nH]ncc45)nc(N4CCOCC4)c3s2)C[C@H](C)N1Cc1nccs1`, the pIC50 was at least 7.00.

Compound `COCCN(CC1CC1)C1CCN(Cc2cc3nc(-c4cccc5[nH]ncc45)nc(N4CCOCC4)c3s2)CC1` had a pIC50 of at least 7.00.

Compound `COCC1CN(Cc2cc3nc(-c4cccc5[nH]ncc45)nc(N4CCOCC4)c3s2)CCN1S(C)(=O)=O` (stereo not drawn) had a pIC50 of at least 7.00.

The compound `CN1CCN(Cc2cc3nc(-c4cccc5c4cnn5C)nc(N4CCOCC4)c3s2)CC1` showed a pIC50 of at least 7.00.

Consider `COCCCS(=O)(=O)C1CCN(Cc2cc3nc(-c4cccc5[nH]ncc45)nc(N4CCOCC4)c3s2)CC1`, for which the pIC50 was at least 7.00.

As to `COCCN(CC(F)(F)F)C1CCN(Cc2cc3nc(-c4cccc5[nH]ncc45)nc(N4CCOCC4)c3s2)CC1`, the pIC50 was at least 7.00.

Compound `c1cc(-c2nc(N3CCOCC3)c3sc(CN4CCN(Cc5cscn5)CC4)cc3n2)c2cn[nH]c2c1` had a pIC50 of at least 7.00.

Take `c1ccc(CN2CCN(Cc3cc4nc(-c5cccc6[nH]ncc56)nc(N5CCOCC5)c4s3)CC2)nc1`: the pIC50 was at least 7.00.

The compound `CN(CCCS(C)(=O)=O)C1CCN(Cc2cc3nc(-c4cccc5[nH]ncc45)nc(N4CCOCC4)c3s2)CC1` gave a pIC50 of at least 7.00.

`COCC1(N2CCN(Cc3cc4nc(-c5cccc6[nH]ncc56)nc(N5CCOCC5)c4s3)CC2)CC1` gave a pIC50 of at least 7.00.

As to `c1cc(-c2nc(N3CCOCC3)c3sc(CN4CCN(Cc5nccs5)CC4)cc3n2)c2cn[nH]c2c1`, the pIC50 is at least 7.00.

Compound `CN1CCN(Cc2cc3nc(-c4cccc5[nH]ccc45)nc(N4CCOCC4)c3s2)CC1` showed a pIC50 of at least 7.00.

Take `CC1CCCN(Cc2cc3nc(-c4cccc5[nH]ncc45)nc(N4CCOCC4)c3s2)C1` (stereo not drawn): the pIC50 is at least 7.00.

The record behind these values is the Kinase Knowledgebase extract (Sharma et al. 2016).
